Reference: the Kinase Knowledgebase extract (Sharma et al. 2016)

molecular target: MAPK14 (human) (UniProt Q16539); experiment: Inhibition of MAPK14 Kinase Activity
Sequence (Q16539 whole entry, looked up): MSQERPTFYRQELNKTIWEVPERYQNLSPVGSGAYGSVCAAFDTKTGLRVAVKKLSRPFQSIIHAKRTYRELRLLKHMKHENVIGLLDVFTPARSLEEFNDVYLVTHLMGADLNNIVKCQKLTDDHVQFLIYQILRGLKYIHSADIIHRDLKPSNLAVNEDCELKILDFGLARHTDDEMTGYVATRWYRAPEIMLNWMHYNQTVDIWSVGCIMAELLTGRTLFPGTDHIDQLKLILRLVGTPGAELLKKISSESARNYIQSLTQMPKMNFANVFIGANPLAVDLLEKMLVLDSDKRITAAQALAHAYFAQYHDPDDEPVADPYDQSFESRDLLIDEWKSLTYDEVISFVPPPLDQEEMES

SMILES	IC50
CC(C)NC(=O)c1csc(-c2oc(CNC(=O)c3ccc(Cl)cc3[N+](=O)[O-])nc2-c2ccc(F)cc2)n1	≤ 1000 nM
CC(C)NC(=O)c1csc(-c2oc(CN3CCN(C(=O)c4cc([N+](=O)[O-])ccc4O)CC3)nc2-c2ccc(F)cc2)n1	≤ 1000 nM
CCC(C)NC(=O)n1ccc(-c2c(-c3ccc(Cl)cc3)noc2C)n1 (stereo not drawn)	≤ 1000 nM
Cc1nc(-c2ccc(F)cc2)c(-c2nc(C(=O)NCCN3CCCC3)cs2)s1	≤ 1000 nM
CC(C)NC(=O)c1csc(-c2c(-c3ccc(F)cc3)n[nH]c2C2CCNCC2)n1	≤ 1000 nM
CC(C)NC(=O)c1csc(-c2c(-c3ccc(F)cc3)n[nH]c2C2CCN(C(=O)c3cc(O)ccc3[N+](=O)[O-])CC2)n1	≤ 1000 nM
COc1cc(OC)c(C(=O)N2CCN(Cc3nc(-c4ccc(F)cc4)c(-c4nc(C(=O)NC(C)C)cs4)o3)CC2)c(OC)c1	≤ 1000 nM
Cc1[nH]nc(-c2ccc(F)cc2)c1-c1nc(C(=O)NCc2ccc3c(c2)OCO3)cs1	≤ 1000 nM
Cc1onc(-c2ccc(F)cc2F)c1-c1ccn(C(=O)NC(C)C)n1	≤ 1000 nM
Cc1nc(-c2ccc(F)cc2)c(-c2nc(C(=O)NCCc3ccc(O)cc3)cs2)s1	≤ 1000 nM
Cc1nc(-c2ccc(F)cc2)c(-c2nc(C(=O)NCC3CCCO3)cs2)s1 (stereo not drawn)	≤ 1000 nM
COc1cccc(CCNC(=O)c2csc(-c3sc(C)nc3-c3ccc(F)cc3)n2)c1	≤ 1000 nM
CC(C)NC(=O)c1csc(-c2oc(CNC(=O)c3ccc(OCc4ccccc4)cc3)nc2-c2ccc(F)cc2)n1	≤ 1000 nM
C#CCNC(=O)c1csc(-c2c(-c3ccc(F)cc3)ncn2C)n1	≤ 1000 nM
CC(C)NC(=O)c1csc(-c2oc(CN3CCN(C(=O)C(C)(C)C)CC3)nc2-c2ccc(F)cc2)n1	≤ 1000 nM
Cc1ccccc1C(=O)N1CCC(c2[nH]nc(-c3ccc(F)cc3)c2-c2nc(C(=O)NC(C)C)cs2)CC1	≤ 1000 nM
COc1ccc(C(=O)N2CCN(Cc3nc(-c4ccc(F)cc4)c(-c4nc(C(=O)NC(C)C)cs4)o3)CC2)c(O)c1	≤ 1000 nM
Cc1nc(-c2ccc(F)cc2)c(-c2nc(C(=O)NCc3ccc(F)c(Cl)c3)cs2)s1	≤ 1000 nM
CC(=O)C(=O)N1CCC(c2[nH]nc(-c3ccc(F)cc3)c2-c2nc(C(=O)NC(C)C)cs2)CC1	≤ 1000 nM
Cc1ccc(C(=O)N2CCN(Cc3nc(-c4ccc(F)cc4)c(-c4nc(C(=O)NC(C)C)cs4)o3)CC2)c(C)c1	≤ 1000 nM
COCCNCc1nc(-c2ccc(F)cc2)c(-c2nc(C(=O)NC(C)C)cs2)o1	≤ 1000 nM

SMILES	IC50
CCC(C)NC(=O)c1csc(-c2c(-c3ccc(F)cc3)n[nH]c2C2CCNCC2)n1 (stereo not drawn)	≤ 1000 nM
CC(C)NC(=O)c1csc(-c2c(-c3ccc(F)cc3)n[nH]c2C2CCN(C(=O)c3ccnc(Cl)c3)CC2)n1	≤ 1000 nM
CC(C)NC(=O)c1csc(-c2[nH]c(CN3CCNCC3)nc2-c2ccc(F)cc2)n1	≤ 1000 nM
Cc1nc(-c2ccc(F)cc2)c(-c2nc(C(=O)NCCCn3ccnc3)cs2)s1	≤ 1000 nM
CC(C)NC(=O)c1csc(-c2c(-c3ccc(F)cc3)n[nH]c2C2CCN(C(=O)C(O)CCl)CC2)n1 (stereo not drawn)	≤ 1000 nM
Cc1ccc(O)c(C(=O)N2CCN(Cc3nc(-c4ccc(F)cc4)c(-c4nc(C(=O)NC(C)C)cs4)o3)CC2)c1	≤ 1000 nM
Cc1nc(-c2ccc(F)cc2)c(-c2nc(C(=O)NCCO)cs2)s1	≤ 1000 nM
CC(C)NC(=O)c1csc(-c2oc(CNC(=O)c3ccncc3Cl)nc2-c2ccc(F)cc2)n1	≤ 1000 nM
Cc1nc(-c2ccc(F)cc2)c(-c2nc(C(=O)Nc3c(C)cccc3C(C)(C)C)cs2)s1	≤ 1000 nM
CC(C)NC(=O)c1csc(-c2oc(CN3CCN(C(=O)c4ccc(OC(C)C)cc4)CC3)nc2-c2ccc(F)cc2)n1	≤ 1000 nM
COc1cc(C(=O)N2CCN(Cc3nc(-c4ccc(F)cc4)c(-c4nc(C(=O)NC(C)C)cs4)o3)CC2)cc(OC)c1O	≤ 1000 nM
O=C(NC1CCCC1)c1csc(-c2c(-c3ccc(F)cc3)n[nH]c2C2CCNCC2)n1	≤ 1000 nM
CC(=O)N1CCC(n2cnc(-c3ccc(F)cc3)c2-c2nc(C(=O)NC(C)C)cs2)CC1	≤ 1000 nM
COc1ccccc1CCNC(=O)c1csc(-c2sc(C)nc2-c2ccc(F)cc2)n1	≤ 1000 nM
Cc1c(C(=O)N2CCC(c3[nH]nc(-c4ccc(F)cc4)c3-c3nc(C(=O)NC(C)C)cs3)CC2)oc2ccccc12	≤ 1000 nM
CC(C)NC(=O)c1csc(-c2oc(CNC(=O)c3ccc(C#N)cc3)nc2-c2ccc(F)cc2)n1	≤ 1000 nM
Cc1nc(-c2ccc(F)cc2)c(-c2nc(C(=O)NCc3cccs3)cs2)s1	≤ 1000 nM
CC(C)NC(=O)c1csc(-c2c(-c3ccc(F)cc3)n[nH]c2C2CCN(C(=O)C(C(C)C)N(C)C(=O)OC(C)(C)C)CC2)n1 (stereo not drawn)	≤ 1000 nM
Cc1nc(-c2ccc(F)cc2)c(-c2nc(C(=O)Nc3ccc(N(C)C)cc3)cs2)s1	≤ 1000 nM
CC(C)NC(=O)c1csc(-c2c(-c3ccc(F)cc3)noc2CN)n1	≤ 1000 nM
CC(C)NC(=O)c1csc(-c2c(-c3ccc(F)cc3)noc2CNC(=O)CC#N)n1	≤ 1000 nM

SMILES	IC50
CC(C)NC(=O)c1csc(-c2oc(CNC(=O)c3cnc[nH]3)nc2-c2ccc(F)cc2)n1	≤ 1000 nM
CC(C)NC(=O)c1csc(-c2oc(CNC(=O)c3cccc(Cl)c3Cl)nc2-c2ccc(F)cc2)n1	≤ 1000 nM
COc1ccc(NC(=O)c2csc(-c3sc(C)nc3-c3ccc(F)cc3)n2)cc1OC	≤ 1000 nM
CC(=O)N1CCN(Cc2nc(-c3ccc(F)cc3)c(-c3nc(C(=O)NC(C)C)cs3)o2)CC1	≤ 1000 nM
Cc1[nH]nc(-c2ccc(F)cc2)c1-c1nc(C(=O)NCc2ccncc2)cs1	≤ 1000 nM
CCOC(=O)CC(=O)N1CCC(c2[nH]nc(-c3ccc(F)cc3)c2-c2nc(C(=O)NC(C)C)cs2)CC1	≤ 1000 nM
CC(C)NC(=O)c1csc(-c2oc(CNC(=O)c3c(Cl)cc(Cl)cc3Cl)nc2-c2ccc(F)cc2)n1	≤ 1000 nM
Cc1nc(-c2ccc(F)cc2)c(-c2nc(C(=O)NCc3cc(F)cc(F)c3)cs2)s1	≤ 1000 nM
Cc1nc(-c2ccc(F)cc2)c(-c2nc(C(=O)NCc3ccc(C)c(C)c3)cs2)s1	≤ 1000 nM
CC(C)NC(=O)c1csc(-c2c(-c3ccc(F)cc3)n[nH]c2C2CCN(C(=O)c3cccc(O)c3)CC2)n1	≤ 1000 nM
CC(C)NC(=O)c1csc(-c2oc(CNC(=O)c3cccc(C#N)c3)nc2-c2ccc(F)cc2)n1	≤ 1000 nM
COc1ccccc1C=CC(=O)N1CCN(Cc2nc(-c3ccc(F)cc3)c(-c3nc(C(=O)NC(C)C)cs3)o2)CC1	≤ 1000 nM
CC(C)NC(=O)c1csc(-c2oc(CNC(=O)c3cc([N+](=O)[O-])ccc3O)nc2-c2ccc(F)cc2)n1	≤ 1000 nM
CC(C)NC(=O)c1csc(-c2oc(CNC(=O)c3ccc(O)cc3O)nc2-c2ccc(F)cc2)n1	≤ 1000 nM
CC(C)NC(=O)c1csc(-c2oc(CN3CCN(C(=O)c4cc([N+](=O)[O-])ccc4Cl)CC3)nc2-c2ccc(F)cc2)n1	≤ 1000 nM
Cc1nc(-c2ccc(F)cc2)c(-c2nc(C(=O)NC(CO)C(C)C)cs2)s1 (stereo not drawn)	≤ 1000 nM
CC(C)NC(=O)c1csc(-c2c(-c3ccccc3)n[nH]c2C2CCN(C(=O)c3ccc(Cl)c([N+](=O)[O-])c3)CC2)n1	≤ 1000 nM
Cc1cc(C)c(C(=O)N2CCN(Cc3nc(-c4ccc(F)cc4)c(-c4nc(C(=O)NC(C)C)cs4)o3)CC2)c(C)c1	≤ 1000 nM
Cc1nc(-c2ccc(F)cc2)c(-c2nc(C(=O)NCCNC(=O)OC(C)(C)C)cs2)s1	≤ 1000 nM
Cc1nc(-c2ccc(F)cc2)c(-c2nc(C(=O)NCc3ccc(Cl)cc3Cl)cs2)s1	≤ 1000 nM
COc1ccc(CNC(=O)c2csc(-c3sc(C)nc3-c3ccc(F)cc3)n2)cc1	≤ 1000 nM
